# Data reported in patent US20160038459A1, “COMPOSITIONS AND METHODS FOR THE TREATMENT OF NATAL AND PRE-NATAL CONDITIONS WITH ALPHA-TOCOPHEROL” (Northwestern University, priority 2014, published 2016).
# Columns and labels:
# [1] = test system: lung tissue cytokines and eotaxins; assay: Pup lung cytokines, chemokines, IDO and MHCII by qPCR; BAL CCL24 by ELISA; format: in vivo, C57BL/6 mice
# Experimental: Total RNA was isolated from 50 to 100 mg lung tissue using the QIAGEN RNeasy Fibrous Tissue Mini Kit. cDNA was prepared using a SuperScript II RNase H-Reverse Transcriptase kit (Invitrogen) and analyzed by PCR on an ABI 7300 Thermal Cycler (Applied Biosystems). Taqman probes and Taqman Universal Master Mix were used as directed (Applied Biosystems). CCL24 in the BAL also was examined by ELISA (Raybiotech).
# [2] = Liver tocopherol measurement by HPLC with electrochemical detection; format: in vivo, C57BL/6 mice
# Experimental: Diets or livers were weighed and homogenized in absolute ethanol with 5% ascorbic acid on ice. The internal standard tocol is added to each […] to determine recovery. The homogenate or plasma was extracted with an equal volume of hexane with 0.37 wt/100 wt butylated hydroxytoluene to prevent oxidation and increase recovery of tocopherol. The samples were vortexed and then centrifuged for 10 min at 9,000 g at 4° C. The hexane layer was dried under nitrogen and stored at −20° C. The samples were reconstituted in methanol, and then tocopherols were separated using a reverse-phase C18 HPLC column (Hewlett Packard) and HPLC (Waters) with 99% methanol-1% water as a mobile phase with detection with an electrochemical detector (potential 0.7 V) (Waters).
# [3] = test system: pup lung dendritic cell subsets; assay: Flow cytometry analysis of pup lung dendritic cell subsets; format: in vivo, C57BL/6 mice
# Experimental: (§1) Following BAL of pups, lungs were removed for analysis of dendritic cell types by flow cytometry. In the fetus, hematopoiesis occurs in the fetal livers. Gestational day 18 fetal livers were collected for analysis of fetal liver DCs. Briefly, tissues were minced and suspended in 5 ml of RPMI solution containing 1 mg/ml collagenase D (Roche) and 0.2 mg/ml DNase I (Roche) at 37° C. with agitation. After 1 h, samples were filtered through sterile 70-μm mesh tissue, centrifuged, and resuspended in 5% FBS-RPMI solution. Red blood cells were lysed in 1×BD PharmLyse Lysing Buffer (BD Biosciences), and the cells were washed two times in PBS. All centrifugation steps were carried out at 300 g for 5 min. Three million cells were used per sample for immunolabeling.
# The cells were stained for live/dead exclusion in 500 μl PBS containing 0.25 μl of Aqua fluorescent reactive dye (Molecular Probes, Invitrogen) for 20 min at room temperature in the dark. Next, FC receptors were blocked by incubating the cells in 50 μl flow cytometry staining buffer (Biolegend) with 0.75 μl purified rat anti-mouse CD16/CD32 Mouse BD FC Block (no. 553142; BD Pharmingen) for 10 min at 4° C.
# To prepare the antibodies for immunolabeling, for each sample equivalent, an antibody stock was prepared by adding the following antibodies to 50 μl of flow cytometry buffer: 1) Live/Dead Aqua fluorescent dye (no. L34957; Molecular Probes, Invitrogen), 0.25 μl/sample; 2) CD45, rat anti-mouse FITC-conjugated, 0.5 mg/ml, clone 30-F11 (no. 103107; Biolegend), 0.31 μl/sample; 3) CD11b, rat anti-mouse PE-CF594-conjugated, 0.2 mg/ml, clone M1/70 (no. 562317; BD Biosciences), 0.05 μl/sample; 4) Ly-6C, rat anti-mouse APC/Cy7-conjugated, 0.2 mg/ml, clone HK1.4 (no. 128025; Biolegend), 0.4 μl/sample; 5) CD11c, Armenian hamster anti-mouse PE/Cy7-conjugated, 0.2 mg/ml, clone N418 (no. 117317; Biolegend), 0.2 μl/sample; 6) I-A/I-E (MHCII), rat anti-mouse PerCP/Cy5.5-conjugated, 0.2 mg/ml, clone M5/114.15.2 (no. 107625; Biolegend), 0.1 μl/sample; 7) CD103, Armenian hamster anti-mouse Brilliant Violet 421-conjugated, clone 2E7 (no. 121421; Biolegend), 0.2 μl/sample; 8) CD317 (PDCA-1), rat anti-mouse APC-conjugated, 0.2 mg/ml, clone 927 (no. […]
# (§2) The cells were examined with a BD LSRII flow cytometer (BD Biosciences). […] Fluorescence Minus One staining controls were used as negative controls to identify gates for populations of interest. The following subpopulations of DCs were analyzed: 1) resident conventional DCs: CD11b+Ly6C−CD11chighMHCIIhigh; 2) CD11b+ alveolar DCs: CD11b+Ly6C−CD11c+MHCII−; 3) inflammatory DCs: CD11b+Ly6C+CD11c+MHCII+; 4) plasmacytoid DCs (pDCs): CD11b−Ly6C−CD11clowPDCA-1+MHCII−; 5) resident CD103+DCs: CD11b−Ly6C−CD11c+CD103+MHCII−; and 6) CD11b−alveolar DCs: CD11b−Ly6C−CD11c+MHCII+/−. […]
# [4] = test system: fetal liver dendritic cell subsets; assay: Flow cytometry analysis of gestational day 18 fetal liver dendritic cells; format: in vivo, C57BL/6 mice
# Experimental: as §1, with “immunolabeling. […]” for “immunolabeling.”
# as §2
# [5] = test system: bone marrow-derived CD11c+CD11b+ DCs; assay: Bone marrow-derived dendritic cell culture with GM-CSF in vitro; format: cell-based, mice; details: 80 μM vs DMSO
# Experimental: For bone marrow-derived postnatal day 10 pup dendritic cell cultures, a single cell suspension of bone marrow from 10-day-old mice was placed in RPMI 1640, glutamine, HEPES, gentamycin sulfate, penicillin/streptomycin, and 10% heat-inactivated FCS. The bone marrow cells were treated with the DMSO solvent control (0.01%) or D-α-tocopherol (80 μM) as we previously described for in vitro treatment with D-α-tocopherol (7). The cells were stimulated with 5 ng granulocyte macrophage colony-stimulating factor (GM-CSF) per milliliter. The culture medium with tocopherol and GM-CSF was replaced on days 2, 4, and 7. […]
# [6] = test system: bone marrow-derived DCs co-cultured with CD4+ T cells; assay: Bone marrow-derived DCs co-cultured 48 hours with purified CD4+ T cells; format: cell-based; details: 48 hours co-culture (not shown)
# Experimental: FIGS. 17A-C show α-T and γ-T have opposing effects in regulation of DC development and function in vitro. FIGS. 17A and B show results from bone marrow from postnatal day 10 neonate (with basal diet) that was cultured with GM-CSF and with 80 μM αT (FIG. 17B) or 2 μM γT (FIG. 17A) for 8 days and analyzed for DC subsets by immunolabeling/flow cytometry. *, p<0.05 compared to DMSO group. **, p<0.05 compared to indicated group. […] Expression by qPCR. There was no effect on cell viability (not shown). n=3. **, p<0.05 compared to all other groups. *, p<0.05 compared to DMSO group.
# [7] = test system: OVA-challenged pups from allergic mothers; assay: OVA-induced allergic inflammation in pups from allergic mothers given D-α-tocopherol-supplemented diet
# Experimental: C57BL/6 female mice were maintained on chow diet. The mice were sensitized by intraperitoneal injection (200 μl) of ovalbumin (OVA) grade V (5 μg)/potassium aluminum sulfate (alum, 1 mg) or saline/alum (1 mg) on days 0 and 7 (26, 28, 46). The mice were exposed to nebulized saline or 3% (wt/vol) OVA in saline for 15 min on three consecutive days at 8, 12, and 16 wk of age. At 18 wk old, the female mice were challenged one time with 3% OVA (26, 28, 46) and then fed basal diet or diet supplemented with D-α-tocopherol (500 mg α-tocopherol/kg diet) (Table 1) (42, 52, 71). […] Ten days after starting the tocopherol-supplemented diet, females were mated with normal males. Three-day-old pups were sub-optimally sensitized by treating with only one 50-μl ip injection (rather than two injections) of 5 μg OVA/1 mg alum (26, 28, 33). At 10, 11, and 12 days old, the pups were challenged for 15 min with 3% OVA (FIG. 1A). At 13 days old, the pups were weighed and killed, and tissues were collected. Serum was collected for analysis of IgE, liver was for tocopherol analysis, lung lavage was for leukocytes and cytokines, and lung tissue was for histology, flow cytometry, and qPCR of mediators of allergic inflammation. Liver was extracted and examined for tocopherols by high-pressure liquid chromatography with electrochemical detection as we previously described (7, 50). Bronchoalveolar lavage (BAL) cells were stained and counted as previously described (3). […] Lung tissue sections were fixed in cold methanol for 15 min, rehydrated for 60 min with PBS, and stained with eosin and methyl green as we previously described (6).
# In these studies, allergic responses were induced in 6-wk-old adult female mice by sensitization with OVA/alum at weeks 0 and 1 and challenge with OVA or saline three times a week during weeks 4, 8, 12, and 18 as in the timeline in FIG. 1A. Next, the females were supplemented with D-α-tocopherol at the time of mating (FIG. 1A). The mothers were given a standard basal diet (45 mg D-α-tocopherol/kg diet) or supplemented with 150, 250, or 500 mg D-α-tocopherol/kg diets (Table 1). […] All pups from the mothers were challenged with a suboptimal regimen of OVA as previously described (46); the pups received one, instead of two, sensitizations with OVA-alum and then received three challenges with aerosolized OVA (FIG. 1A).
# [8] = test system: OVA-challenged pups from allergic mothers; assay: Maternal γ-tocopherol supplementation of allergic mothers, suboptimal OVA challenge of pups; format: in vivo, C57BL/6 mice; details: for numbers of IRF4+CD11b+CD11c+ dendritic cells in pup lung: OVA-challenged pups from allergic mothers; for inflammatory mediators in OVA-treated pup lungs: protein array and ELISA of minced lung culture supernatants
# Experimental: (§3) C57BL/6 female mice were sensitized with OVA/alum and challenged with OVA (150 μg) as in the timeline below. Then, the cages were supplied with basal diet (45 mg γ-tocopherol/kg diet) or γ-tocopherol supplemented diets (250 mg γ-tocopherol/kg diet) and males were introduced for breeding. The pups were administered a suboptimal dose of OVA/alum (i.e., one i.p. with OVA/alum and 3 challenges for 10 min with 3% OVA as previously described (Am J Respir Cell Mol Biol 2011. 44: 285 and Am J PhysiolLung Cell MolPhysiol. 2014, 15; 307:L482-96; both of which are herein incorporated by reference in their entireties).
# [9] = Tissue γ-tocopherol after maternal γ-tocopherol-supplemented diet; format: in vivo, C57BL/6 mice
# Experimental: as §3
# [10] = maternal supplementation during pregnancy/lactation, first litter, PND13, qPCR
# [11] = second litter, 500 mg/kg maternal diet, OVA-challenged pups from allergic mothers
# [12] = PND13 OVA-challenged pups, maternal supplementation
# [13] = bone marrow from 10-day-old neonates, 8 days
# [14] = maternal supplementation, discussion statement
# [15] = 250 mg γ-tocopherol/kg maternal diet
# [16] = 250 mg γ-tocopherol/kg maternal diet, listed as γT
# [17] = 250 mg γ-tocopherol/kg maternal diet, allergic mothers
smiles,measurement,setting,value
"Cc1c(C)c2c(c(C)c1O)CC[C@@](C)(CCC[C@H](C)CCC[C@H](C)CCCC(C)C)O2 [D-α-tocopherol, D-α-Tocopherol]",OVA-induced pup lung mRNA expression of CCL11,[1]; [10],inhibited
same,OVA-induced pup lung mRNA expression of CCL24,[1]; [10],inhibited
same,OVA-induced pup lung mRNA expression of IL-4,[1]; [10],inhibited
same,OVA-induced pup lung mRNA expression of IL-33,[1]; [10],inhibited
same,protein expression of CCL24 in BAL supernatant,"[1]; maternal supplementation during pregnancy/lactation, PND13, ELISA",inhibited
same,whole lung expression of IFNγ,[1]; [11],no effect
same,whole lung expression of IL-2,[1]; [11],no effect
same,whole lung expression of IL-10,[1]; [11],no effect
same,whole lung expression of MHCII,[1]; [11],no effect
same,whole lung expression of TNF-α,[1]; [11],no effect
same,whole lung mRNA expression of CCL11,[1]; [11],reduced
same,whole lung mRNA expression of CCL24,[1]; [11],reduced
same,whole lung mRNA expression of IL-4,[1]; [11],reduced
same,whole lung mRNA expression of IL-33,[1]; [11],reduced
same,whole lung mRNA expression of TSLP,[1]; [11],reduced
same,lung tissue expression of IDO,"[1]; second litter, 500 mg/kg maternal diet, pups from allergic mothers and saline mothers",reduced
same,increase of pup liver D-α-tocopherol with maternal supplementation,[2]; PND13 pup liver,2.5 fold
same,"lung tissue number of CD11c+CD11b+ subsets of DCs, including resident conventional DCs, mDCs, and CD11b+ alveolar DCs",[3]; [12],significantly reduced
same,"pup lung CD11c+CD11b− subsets of cells, including pDCs, resident CD103+DCs, CD11b− alveolar DCs, and alveolar macrophages",[3]; [12],did not alter
same,"mean fluorescence intensity for MHCII, CD80, and CD86 on CD11c+CD11b+DCs and CD11c+CD11b−DCs","[3]; pup lung, among the groups (data not shown)",not different
same,pup lung pDC-to-cDC ratio,"[3]; supplementation of allergic mothers, OVA-challenged pups, 0.3 with basal diet",0.53
same,fetal liver CD11c+CD11b− subsets,[4]; maternal supplementation (data not shown),not altered
same,"number of CD11c+CD11b+DCs in fetal livers, including phenotype of mDCs and of resident DCs",[4]; supplementation of allergic mothers,reduced
same,percent of viable cells in the culture,[5]; 8 days (data not shown),without affecting
same,number of CD45+CD11b+CD11+DCs,[5]; [13],reduced
same,number of cells with resident DC phenotype (CD45+CD11b+CD11c+Ly6c−MHCII−DCs),[5]; [13],reduced
same,cell viability,[6]; 80 μM α-T,no effect
same,percent eosinophils in the BAL,"[7]; 150 mg α-tocopherol/kg maternal diet, pups PND13",partially inhibited
same,percent eosinophils in the BAL,"[7]; 250 mg α-tocopherol/kg maternal diet, pups PND13",greatest inhibition
same,development of the allergic response in cross-fostered neonates,"[7]; 250 mg/kg diet during pregnancy only, pups cross-fostered to allergic mothers with basal diet",sufficient to inhibit
same,allergic responses in cross-fostered neonates,"[7]; 250 mg/kg diet supplementation during lactation only, cross-fostered",reduced
same,percent eosinophils in the BAL,"[7]; 500 mg α-tocopherol/kg maternal diet, pups PND13",greatest inhibition
same,inhibition of BAL eosinophils in the OVA-challenged pups,"[7]; 500 mg/kg diet started at second mating, second litter of allergic mothers",> 90%
same,OVA-specific serum IgE in pups,"[7]; among the D-α-tocopherol treatment groups, ELISA",not different
same,allergic inflammation in the OVA-stimulated pups from allergic mothers,"[7]; maternal diet 150, 250 or 500 mg/kg diet vs basal 45 mg/kg, pregnancy and lactation, PND13 BAL",dose-dependent inhibition
same,eosinophils in the lung tissue of OVA-challenged pups,"[7]; maternal supplementation of allergic female mice, eosin/methyl green histology",reduced
same,allergic responses in the lung (BAL eosinophils and monocytes),"[7]; maternal supplementation, PND13 pups of the liver tocopherol/DC experiment (FIG. 9D)",blocked
same,body weight,[7]; [14],did not affect
same,lung weight,[7]; [14],did not affect
same,pup gender distribution,[7]; maternal supplemented diets,no effect
same,pup numbers,[7]; maternal supplemented diets,no effect
same,pup weight,"[7]; maternal supplemented diets, pups PND13",no effect
Cc1c(O)cc2c(c1C)O[C@](C)(CCC[C@H](C)CCC[C@H](C)CCCC(C)C)CC2 [γ-tocopherol],liver γ-tocopherol,[2]; all groups of the D-α-tocopherol diet experiment (data not shown),< 0.003 μg γ-tocopherol/g liver tissue
same,number of BAL leukocytes in OVA-challenged pups from allergic mothers,[8]; [15],increases
same,number of pups from supplemented allergic mothers,[8]; [15],fewer pups
same,pup responses to allergen challenge,"[8]; 250 mg γ-tocopherol/kg maternal diet during pregnancy/lactation, allergic mothers",elevated
same,numbers of IRF4+CD11b+CD11c+ dendritic cells in pup lung,[8]; [15],increases
same,numbers of IRF4+CD11b+CD11c+ dendritic cells in pup lung,[8]; [16],elevated numbers
same,numbers of CD11b expressing subsets of CD11c dendritic cells in pup lung,[8]; [17],increased numbers
same,numbers of pup lung eosinophils,[8]; [17],increased numbers
same,number of allergic mothers with pups,"[8]; 250 mg γ-tocopherol/kg maternal diet, percentage of mated females that had pups",reduced
same,inflammatory mediators in OVA-treated pup lungs,[8]; [15],increases
same,inflammatory mediators in OVA-treated pup lungs,[8]; [16],increased
same,tissue γ-tocopherol in mothers,[9],elevates
same,tissue γ-tocopherol in pups,[9],elevates
same,cell viability,[6]; 2 μM γ-T,no effect
